Laboratory results taken from patent US20040229960A1, “Compositions and methods of administering tubulin binding agents for the treatment of ocular diseases” (priority 2001, published 2004).

Assays:
[1] = Biodistribution of 14C-CA4P following topical administration of a gel; format: in vivo, New Zealand rabbits
Description: (§1) ^14C-CA4P (OXiGENE Inc., Watertown, Mass.) was resuspended in 100 ul volume of saline solution and injected with a 30 G needle into the right eyes of anesthesized male New Zealand rabbits (4 months old, 1.8-2.5 kg, n=3 per sample). Three different concentrations of ^14C-CA4P were tested (1, 10, 100 mg/ml) corresponding to doses of 1, 5, and 5 uCi of applied radioactivity respectively. A blank control group was also included. Rabbits were anaesthetized at 1, 6, 24, and 48 hours for blood sampling. After blood collection, the animals were euthanized by Phenobarbital injection and the treated right eyes were removed from all test animals. Ocular tissue samples were dissected from the cornea, aqueous humor, vitreous humor, choroid, or retina, placed in 20-mi glass scintillation vials, vortexed, and incubated for 24 hrs with 500 ul digesting fluid. Plasma was separated from whole blood by centrifugation (1,800 g for 10 minutes). Both ocular tissue samples and plasma were incubated at room temperature with 16 ml of Hionic Fluor™ scintillation fluid for a period of 24 hours prior to radioactivity counting. Each sample was counted for 5 minutes in a Betamatic V counter (Bio-Tek Kontron Instruments, St Quentin en Yvelines, France). The conversion of counts per minute (“cpm”) into disintegrations per minute (“dpm”) was performed automatically by the beta-counter, using calibration curves obtained from ^14C-standards and quenching curves from the respective blank matrices spiked with ^14C-standards. The concentration of drug was determined according to nanogram equivalents of CA4P (ng-Eq/g of tissue) which was calculated from the measured dpm value, the weight of the tissue specimen, and the specific activity of the drug (0.37 mCi/mg), followed by subtraction of the corresponding background value from control eye tissue. A tissue concentration of 1 uM CA4P is equal to […] tissue.
Topical gels and solutions were developed for use as topical formulation suitable for the topical delivery of CA4P to the surface of the eye. Topical solutions (1, 3, and 10%) was directly prepared in 0.9% NaCl (Aguettant, Lyon, France) and sterilized with 0.2 um filter (pH 6.4 to 8.5, osmolarity 290 to 459 mosmol/kg H2O. Low viscosity topical gels (1,3,and 10%) were prepared in 0.5% carboxymethylcellulose (Sigma Aldrich Chimie, St. Quentin Fallavier Cedex, France) with 0.9% NaCl. The physicochemical specifications of each gel are listed in Table 5
Topical formulations were applied to the surface of right eyes at an applied dose of 5 uCi in a volume of 50 ul. Cornea was sampled instead of sclera. Samples were taken at […] and 24 hours.

[2] = tested on: choroidal neovascularization; test: Krypton laser murine model of choroidal neovascularization; format: in vivo, C57BL/6J mouse; conditions: for Average Vessel Lumen Area: vehicle 0.0129886
Description: Choroidal neovascularization is a major cause of severe vision loss in patients with age-related or wet macular degeneration. To investigate the capacity of CA4P to inhibit vascular growth in the choroids, a murine model of Choroidal Neovascularization was tested. In this model the investigator used a krypton laser to create a wound on the Bruch's membrane of a C57BL/6J mouse. Each eye received several burns. The burn elicited a classic wound-healing response that included neovascularization within the choroid. This krypton laser photocoagulation method has been described in Tobe et al., Am. J. of Pathology, 1998, 153(5):1641-6. […] Histopathology and fluorescein angiography were used to identify neovascularization surrounding the burn. Electron microscopy was used to measure the lumen diameter of fenestrated neovasculature within the choroidal neovascular lesions. Table 12 illustrates the results of CA4P treatment on the average vessel lumen area.

[3] = Biodistribution of 14C-CA4P following intravitreal injection; format: in vivo, New Zealand rabbits
Description: as §1

[4] = tested on: corneal neovascularization; test: LHP-induced rabbit corneal neovascularization model, IP treatment; format: in vivo, New Zealand rabbits; conditions: for Effect on neovascular growth: 50 mg/kg IP
Excerpt: To assess the ability of CA4P to inhibit corneal neovascularization, a rabbit corneal model was used in which neovascularization was induced by linoleic acid hydroperoxide (“LHP”) injection (Ueda et al., Angiogenesis, 1997, 1: 174-184). Injection of LHP in the corneal stroma stimulates the localized production of angiogenic cytokines within the cornea. Blood vessels in the circumlimbal plexus respond to the angiogenic stimulation by migrating towards the site of LHP injection. Therapeutic efficacy of systemically delivered CA4P was assessed by measuring the length of these proliferating vessels.
Vessels grew at a rate of 0.25 mm/day. Groups 2 and 4 were injected intraperitoneally (“IP”) with CA4P (50 mg/kg) after 3 and 10 days of vessel growth respectively. Treatment groups 1 and 3 were injected with saline control on day 3 and day 10 post-LHP injection. Surface photographs of the cornea were taken at 0, 3, 6, 12, 17, and 28 days post-LHP injection. Following each photographic session, corneal vessels were observed under an operating microscope and Castroviejo calipers were used to measure the length of the most prominent vessel.
In addition to longest-vessel measurements, histology analysis was undertaken on day 28 to assess the amount of dissolved extracellular matrix, vessel wall thickness, and degree of vessel branching. Euthanized animals were enucleated and the vitreous was removed from each eye prior to fixation in 4% paraformaldehyde for 45 minutes and 0.2M cacodylate buffer (pH 7.4) overnight. Eyes were embedded in paraffin, sectioned to a 3 um thickness, and stained with […] and eosin.

[5] = early intervention, 50 mg/kg IP qd x 5 from Day 3 (Group 2)

COc1ccc(/C=C\c2cc(OC)c(OC)c(OC)c2)cc1OP(=O)([O-])[O-].[Na+].[Na+] [CA4P, combretastatin A4 disodium phosphate] showed a Cmax ([1]; aqueous humor, 1% topical gel) of 2.4 µM, a Cmax ([1]; aqueous humor, 3% topical gel) of 8.2 µM and a Cmax ([1]; aqueous humor, 10% topical gel) of 13 µM. The Cmax ([1]; choroid, 1% topical gel) was 2.8 µM, the Cmax ([1]; choroid, 3% topical gel) was 10.7 µM and the Cmax ([1]; choroid, 10% topical gel) was 22.5 µM. The “Concentration of drug delivered” value ([1]; cornea, retina and choroid, all three gel formulations) was greater than 1 µM, the Cmax ([1]; cornea, 1% topical gel, 50 ul) was 82 µM and the Cmax ([1]; cornea, 3% topical gel, 50 ul) was 118 µM. The Cmax ([1]; cornea, 10% topical gel, 50 ul) was 292 µM, the Cmax ([1]; plasma, 1% topical gel) was 0.09 µM and the Cmax ([1]; plasma, 3% topical gel) was 0.56 µM. The Cmax ([1]; plasma, 10% topical gel) was 1.63 µM, the Cmax ([1]; retina, 1% topical gel) was 1 µM and the Cmax ([1]; retina, 3% topical gel) was 5.8 µM. For the same molecule, the Cmax ([1]; retina, 10% topical gel) was 5.8 µM, the “Time of highest concentrations of drug in the eye” value ([1]; topical gel) was “within the first hour” and the “Average Vessel Lumen Area” value ([2]; 10 mg/kg) was 0.01186 mm^2. For the same molecule, the “Average Vessel Lumen Area” value ([2]; 20 mg/kg) was 0.01101 mm^2, the “Average Vessel Lumen Area” value ([2]; 100 mg/kg IP) was 0.007612 mm^2 and the “Less vascular lumen area compared to saline” value ([2]; 100 mg/kg/day IP) was “approximately 50%”. For the same molecule, the Cmax ([3]; aqueous humor, 1 mg/ml intravitreal) was 0.15 µM, the Cmax ([3]; aqueous humor, 10 mg/ml intravitreal) was 0.79 µM and the Cmax ([3]; aqueous humor, 100 mg/ml intravitreal) was 460 µM. It also gave a Cmax ([3]; cornea, 1 mg/ml intravitreal) of 95 µM, a Cmax ([3]; cornea, 10 mg/ml intravitreal) of 969 µM and a Cmax ([3]; cornea, 100 mg/ml intravitreal) of 5870 µM. For the same molecule, the “Time of highest concentrations of drug in the eye” value ([3]; intravitreal injection) was “within the first hour”, the Cmax ([3]; plasma, 1 mg/ml intravitreal) was 0.4 µM and the Cmax ([3]; plasma, 10 mg/ml intravitreal) was 0.2 µM. It also gave a Cmax ([3]; plasma, 100 mg/ml intravitreal) of 0.78 µM, a Cmax ([3]; retina, 1 mg/ml intravitreal) of 160 µM and a Cmax ([3]; retina, 10 mg/ml intravitreal) of 1980 µM. For the same molecule, the Cmax ([3]; retina, 100 mg/ml intravitreal) was 10700 µM, the “Concentration of drug delivered” value ([3]; retina, all concentrations tested, intravitreal) was greater than 1 µM and the Cmax ([3]; sclera, 1 mg/ml intravitreal) was 19 µM. For the same molecule, the Cmax ([3]; sclera, 10 mg/ml intravitreal) was 153 µM, the Cmax ([3]; sclera, 100 mg/ml intravitreal) was 16100 µM and the Cmax ([3]; vitreous, 1 mg/ml intravitreal) was 75 µM. The Cmax ([3]; vitreous, 10 mg/ml intravitreal) was 757 µM, the Cmax ([3]; vitreous, 100 mg/ml intravitreal) was 10000 µM and the “Histology of corneal vessels” value ([4]; Day 28, stained sections, vs vehicle (round and numerous)) was “vessels appeared narrow and less numerous”. For the same molecule, the “Vessel Length on Day 6” value [4, 5] was 0.7 ± 0.16 mm, the “Vessel Length on Day 12” value [4, 5] was 0.5 ± 0.61 mm and the “Vessel Length on Day 3” value ([4]; early intervention, 50 mg/kg IP qd x 5 from Day 3 (Group 2), Day 3 = treatment start) was 0.6 ± 0.12 mm. For the same molecule, the “Effect on neovascular growth” value ([4]; intervention 10 days after angiogenic stimulation) was “the effect was the same”, the “Effect on neovascular growth” value ([4]; intervention within 3 days of angiogenic stimulation) was “complete inhibition of neovascular growth” and the “Vessel Length on Day 12” value ([4]; late intervention, 50 mg/kg IP from Day 10 (Group 4), first column) was 2.6 ± 0.29 mm. The “Vessel Length on Day 12” value ([4]; late intervention, 50 mg/kg IP from Day 10 (Group 4), second column) was 2.8 ± 0.49 mm and the “Regression rate of preformed vessels in the eye” value ([4]; rabbit eyes, preliminary work (FIGS. 3, 4)) was “accelerated the regression rate of preformed vessels”.
